The assay deals with Human Factor D (Homo sapiens (Human), UniProt P00746). Description: Human Factor D Assay. Format: biochemical. The essentials:
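Thioester substrate Z-L-Lys-SBz (100 μM) with Ellman's reagent DTNB (100 μM) reports activity of 80 nM human serum-derived enzyme, kinetically at 405 nm over 30 min. Compound preincubated 5 min, room temperature, pH 7.5 Tris/1 M NaCl; IC50 by nonlinear fit of rates.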

The mark [1] stands for this setting: Table 8, Factor D 80 nM, substrate Z-L-Lys-SBz, read-out: IC50.
[2] abbreviates: Factor D inhibition, assay of Example 10, read-out: IC5 (Stars).

Where two headings read alike, the source gives them in different places. Some results are limits rather than exact numbers.

Sequence of Human Factor D (P00746 26-253): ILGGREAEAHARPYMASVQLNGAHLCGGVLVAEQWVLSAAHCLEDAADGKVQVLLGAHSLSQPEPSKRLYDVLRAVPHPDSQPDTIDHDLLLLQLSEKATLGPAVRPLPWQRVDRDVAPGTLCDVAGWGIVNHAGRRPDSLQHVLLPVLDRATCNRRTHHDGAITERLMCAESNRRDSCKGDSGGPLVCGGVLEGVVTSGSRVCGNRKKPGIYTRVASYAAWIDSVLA

Regarding `CCCCCNC(=O)c1nn(CC(=O)N2[C@H](C(=O)Nc3nc(Br)ccc3C)C[C@@]3(C)C[C@@H]23)c2ccc(-c3cnc(C)nc3)cc12` [Compound 477, 1-(2-((1R,3S,5R)-3-((6-bromo-3-methylpyridin-2-yl)carbamoyl)-5-methyl-2-azabicyclo[3.1.0]hexan-2-yl)-2-oxoethyl)-5-(2-methylpyrimidin-5-yl)-N-pentyl-1H-indazole-3-carboxamide], the IC50 under setting [1] is more than 10000 nM. On the same count and under the same terms, for `Cc1ncc(-c2ccc3c(c2)c(C(=O)NCC2CC2)nn3CC(=O)N2[C@H](C(=O)Nc3nc(Br)ccc3C)C[C@@]3(C)C[C@@H]23)cn1` [Compound 478, 1-(2-((1R,3S,5R)-3-((6-bromo-3-methylpyridin-2-yl)carbamoyl)-5-methyl-2-azabicyclo[3.1.0]hexan-2-yl)-2-oxoethyl)-N-(cyclopropylmethyl)-5-(2-methylpyrimidin-5-yl)-1H-indazole-3-carboxamide] the value was less than 1000 nM; for `Cc1ncc(-c2ccc3c(c2)c(C(=O)NCC2CCC2)nn3CC(=O)N2[C@H](C(=O)Nc3nc(Br)ccc3C)C[C@@]3(C)C[C@@H]23)cn1` [Compound 479], 1000 to 10000 nM. As to `Cc1ncc(-c2ccc3c(c2)c(C(=O)NCC(C)(C)C)nn3CC(=O)N2[C@H](C(=O)Nc3nc(Br)ccc3C)C[C@@]3(C)C[C@@H]23)cn1` [Compound 480], the IC50 under setting [1] was more than 10000 nM.

With `CC(=O)c1cn(CC(=O)N2[C@H](C(=O)Nc3nc(Br)ccc3C)C[C@@]3(C)C[C@@H]23)c2cc(F)c(-c3cnc(C)nc3)cc12` [Compound 482, (1R,3S,5R)-2-(2-(3-acetyl-6-fluoro-5-(2-methylpyrimidin-5-yl)-1H-indol-1-yl)acetyl)-N-(6-bromo-3-methylpyridin-2-yl)-5-methyl-2-azabicyclo[3.1.0]hexane-3-carboxamide], under setting [2], the IC50 is less than 1000 nM.

Regarding `CC(=O)c1c(C)n(CC(=O)N2[C@H](C(=O)Nc3nc(Br)ccc3C)C[C@@]3(C)C[C@@H]23)c2ccc(-c3cnc(C)nc3)cc12` [Compound 483, (1R,3S,5R)-2-(2-(3-acetyl-2-methyl-5-(2-methylpyrimidin-5-yl)-1H-indol-1-yl)acetyl)-N-(6-bromo-3-methylpyridin-2-yl)-5-methyl-2-azabicyclo[3.1.0]hexane-3-carboxamide], under setting [2], the IC50 was less than 1000 nM.

In the case of `CC(=O)c1nn(CC(=O)N2[C@H](C(=O)Nc3nc(Br)c(F)cc3C)C[C@@]3(Cc4nnc(C)o4)C[C@@H]23)c2c(C)cc(-c3cnc(C)nc3)cc12` [Compound 484, (1R,3S,5R)-2-(2-(3-acetyl-7-methyl-5-(2-methylpyrimidin-5-yl)-1H-indazol-1-yl)acetyl)-N-(6-bromo-5-fluoro-3-methylpyridin-2-yl)-5-((5-methyl-1,3,4-oxadiazol-2-yl)methyl)-2-azabicyclo[3.1.0]hexane-3-carboxamide], the IC50 under setting [2] was less than 1000 nM.

As to `CC(=O)c1nn(CC(=O)N2[C@H](C(=O)Nc3nc(Br)c(F)cc3C)C[C@@]3(Cc4nnc(C)o4)C[C@@H]23)c2c(C)nc(-c3cnc(C)nc3)cc12` [Compound 485, (1R,3S,5R)-2-(2-(3-acetyl-7-methyl-5-(2-methylpyrimidin-5-yl)-1H-pyrazolo[3,4-c]pyridin-1-yl)acetyl)-N-(6-bromo-5-fluoro-3-methylpyridin-2-yl)-5-((5-methyl-1,3,4-oxadiazol-2-yl)methyl)-2-azabicyclo[3.1.0]hexane-3-carboxamide], under setting [2], the IC50 is less than 1000 nM. For `CC(=O)c1nn(CC(=O)N2[C@H](C(=O)Nc3nc(Br)ccc3Cl)C[C@@]3(Cc4nnc(C)o4)C[C@@H]23)c2c(C)cc(-c3cnc(C)nc3)cc12` [Compound 486, (1R,3S,5R)-2-(2-(3-acetyl-7-methyl-5-(2-methylpyrimidin-5-yl)-1H-indazol-1-yl)acetyl)-N-(6-bromo-3-chloropyridin-2-yl)-5-((5-methyl-1,3,4-oxadiazol-2-yl)methyl)-2-azabicyclo[3.1.0]hexane-3-carboxamide], the IC50 under setting [2] is less than 1000 nM. On to `CCCNC(=O)c1nn(CC(=O)N2[C@H](C(=O)NCCC)C[C@@]3(C)C[C@@H]23)c2ccc(-c3cnc(C)nc3)cc12` [Compound 487, 1-(2-((1R,3S,5R)-5-methyl-3-(propylcarbamoyl)-2-azabicyclo[3.1.0]hexan-2-yl)-2-oxoethyl)-5-(2-methylpyrimidin-5-yl)-N-propyl-1H-indazole-3-carboxamide], for which the IC50 under setting [2] fell in the range of 1000 to 10000 nM. On the same count and under the same terms, for `CCCCNC(=O)[C@@H]1C[C@@]2(C)C[C@H]2N1C(=O)Cn1nc(C(C)=O)c2cc(-c3cnc(C)nc3)ccc21` [Compound 488, (1R,3S,5R)-2-(2-(3-acetyl-5-(2-methylpyrimidin-5-yl)-1H-indazol-1-yl)acetyl)-N-butyl-5-methyl-2-azabicyclo[3.1.0]hexane-3-carboxamide] the value was less than 1000 nM.

As for `Cc1ncc(-c2ccc3c(c2)c(C(=O)NCCN)nn3CC(=O)N2[C@H](C(=O)Nc3nc(Br)ccc3C)C[C@@]3(C)C[C@@H]23)cn1` [Compound 489, N-(2-aminoethyl)-1-(2-((1R,3S,5R)-3-((6-bromo-3-methylpyridin-2-yl)carbamoyl)-5-methyl-2-azabicyclo[3.1.0]hexan-2-yl)-2-oxoethyl)-5-(2-methylpyrimidin-5-yl)-1H-indazole-3-carboxamide], the IC50 under setting [1] was 1000 to 10000 nM. The same measure, in the same setting: for `CNCCNC(=O)c1nn(CC(=O)N2[C@H](C(=O)Nc3nc(Br)ccc3C)C[C@@]3(C)C[C@@H]23)c2ccc(-c3cnc(C)nc3)cc12` [Compound 490, 1-(2-((1R,3S,5R)-3-((6-bromo-3-methylpyridin-2-yl)carbamoyl)-5-methyl-2-azabicyclo[3.1.0]hexan-2-yl)-2-oxoethyl)-N-(2-(methylamino)ethyl)-5-(2-methylpyrimidin-5-yl)-1H-indazole-3-carboxamide] the value was 1000 to 10000 nM. Same read-out and setting: for `Cc1ncc(-c2ccc3c(c2)c(C(=O)NCCN(C)C)nn3CC(=O)N2[C@H](C(=O)Nc3nc(Br)ccc3C)C[C@@]3(C)C[C@@H]23)cn1` [Compound 491, 1-(2-((1R,3S,5R)-3-((6-bromo-3-methylpyridin-2-yl)carbamoyl)-5-methyl-2-azabicyclo[3.1.0]hexan-2-yl)-2-oxoethyl)-N-(2-(dimethylamino)ethyl)-5-(2-methylpyrimidin-5-yl)-1H-indazole-3-carboxamide] the value was more than 10000 nM. Take `CC(=O)c1nn(CC(=O)N2[C@H](C(=O)Nc3cc(C)cc(Br)n3)C[C@@]3(C)C[C@@H]23)c2ccc(-c3cnc(C)nc3)cc12` [Compound 492, (1R,3S,5R)-2-(2-(3-acetyl-5-(2-methylpyrimidin-5-yl)-1H-indazol-1-yl)acetyl)-N-(6-bromo-4-methylpyridin-2-yl)-5-methyl-2-azabicyclo[3.1.0]hexane-3-carboxamide]: the IC50 under setting [2] is less than 1000 nM. Still for that read-out and setting: as for `CC(=O)c1nn(CC(=O)N2[C@H](C(=O)Nc3cc(C(=O)O)cc(Br)n3)C[C@@]3(C)C[C@@H]23)c2ccc(-c3cnc(C)nc3)cc12` [Compound 493, 2-[(1R,3S,5R)-2-{2-[3-Acetyl-5-(2-methylpyrimidin-5-yl)indazol-1-yl]acetyl}-5-methyl-2-azabicyclo[3.1.0]hexane-3-amido]-6-bromopyridine-4-carboxylic Acid], the figure is less than 1000 nM; as for `COc1cc(-c2cnc(C)nc2)cc2c(C(C)=O)nn(CC(=O)N3[C@H](C(=O)Nc4nc(Br)ccc4C)C[C@@]4(C)C[C@@H]34)c12` [Compound 494, (1R,3S,5R)-2-(2-(3-acetyl-7-methoxy-5-(2-methylpyrimidin-5-yl)-1H-indazol-1-yl)acetyl)-N-(6-bromo-3-methylpyridin-2-yl)-5-methyl-2-azabicyclo[3.1.0]hexane-3-carboxamide], less than 1000 nM; as for `CC(=O)c1nn(CC(=O)N2[C@H](C(=O)NCC(=O)O)C[C@@]3(C)C[C@@H]23)c2c(C)cc(-c3cnc(C)nc3)cc12` [Compound 495, ((1R,3S,5R)-2-(2-(3-acetyl-7-methyl-5-(2-methylpyrimidin-5-yl)-1H-indazol-1-yl)acetyl)-5-methyl-2-azabicyclo[3.1.0]hexane-3-carbonyl)glycine], 1000 to 10000 nM. The same measure, in the same setting: as for `CC(=O)c1nn(CC(=O)N2[C@H](C(=O)NCCC(=O)O)C[C@@]3(C)C[C@@H]23)c2c(C)cc(-c3cnc(C)nc3)cc12` [Compound 497, 3-((1R,3S,5R)-2-(2-(3-acetyl-7-methyl-5-(2-methylpyrimidin-5-yl)-1H-indazol-1-yl)acetyl)-5-methyl-2-azabicyclo[3.1.0]hexane-3-carboxamido)propanoic acid], the figure is less than 1000 nM; as for `CC(=O)c1nn(CC(=O)N2[C@H](C(=O)NCCCC(=O)O)C[C@@]3(C)C[C@@H]23)c2c(C)cc(-c3cnc(C)nc3)cc12` [Compound 498, 4-((1R,3S,5R)-2-(2-(3-acetyl-7-methyl-5-(2-methylpyrimidin-5-yl)-1H-indazol-1-yl)acetyl)-5-methyl-2-azabicyclo[3.1.0]hexane-3-carboxamido)butanoic acid], less than 1000 nM.

Regarding `Cc1ncc(-c2ccc3c(c2)c(C(=O)NCC(F)(F)F)nn3CC(=O)N2[C@H](C(=O)Nc3nc(Br)ccc3C)C[C@@]3(C)C[C@@H]23)cn1` [Compound 499, 1-(2-((1R,3S,5R)-3-((6-bromo-3-methylpyridin-2-yl)carbamoyl)-5-methyl-2-azabicyclo[3.1.0]hexan-2-yl)-2-oxoethyl)-5-(2-methylpyrimidin-5-yl)-N-(2,2,2-trifluoroethyl)-1H-indazole-3-carboxamide], the IC50 under setting [1] was less than 1000 nM. Turning to `Cc1ncc(-c2ccc3c(c2)c(C(=O)NCC(C)C)nn3CC(=O)N2[C@H](C(=O)Nc3nc(Br)ccc3C)C[C@@]3(C)C[C@@H]23)cn1` [Compound 500, 1-(2-((1R,3S,5R)-3-((6-bromo-3-methylpyridin-2-yl)carbamoyl)-5-methyl-2-azabicyclo[3.1.0]hexan-2-yl)-2-oxoethyl)-N-isobutyl-5-(2-methylpyrimidin-5-yl)-1H-indazole-3-carboxamide], under setting [1], the IC50 is less than 1000 nM.

The values are drawn from US11084800B2 (Achillion Pharmaceuticals, Inc., priority 2017, dated 2021).
